Experimental data reported in PMC10762035, “Molecular basis of human trace amine-associated receptor 1 activation” (Nature Communications, 2024).
Changes are numbered by the printed parent chain. Values joined by “and” are separate entries in the source; they are usually repeats but may differ in a detail not shown here. Equal entries are not always repeated. Where two headings read alike, the source gives them in different places.

Assays:
[1] = target: T1, hTA1 T194A (Homo sapiens, UniProt Q96RJ0, T194A); assay: GloSensor cAMP accumulation assay, T194A mutant; settings: for Emax values, Mean: β-PEA = 100; for cAMP accumulation response, individual replicate values of the concentration-response curve: hTA1 T194A, log[Agonist], Supplementary Figure 5 source data
T1 sequence (Q96RJ0 1-339 T194A): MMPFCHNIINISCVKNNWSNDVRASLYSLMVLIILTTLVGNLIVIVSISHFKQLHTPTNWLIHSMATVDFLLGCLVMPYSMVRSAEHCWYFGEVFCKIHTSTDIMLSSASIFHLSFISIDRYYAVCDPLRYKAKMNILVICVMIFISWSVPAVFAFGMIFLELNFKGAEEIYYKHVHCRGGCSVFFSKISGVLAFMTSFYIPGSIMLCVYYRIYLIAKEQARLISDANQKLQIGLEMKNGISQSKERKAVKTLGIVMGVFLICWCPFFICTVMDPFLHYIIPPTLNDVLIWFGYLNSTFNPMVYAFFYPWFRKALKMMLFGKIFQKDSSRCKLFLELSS

[2] = target: T2, hTA1 C5S (Homo sapiens, UniProt Q96RJ0, C5S); assay: GloSensor cAMP accumulation assay, C5S mutant; format: cell-based; settings: for C5S - Normalized Luminescence Counts (N=2): log[Compound], single wells
T2 construct: expressed in transfected cells; host or cells: HEK293T
T2 sequence (Q96RJ0 1-339 C5S): T1 sequence (Q96RJ0 1-339 T194A) with C5S, A194T

[3] = target: T3, hTA1 R83H (Homo sapiens, UniProt Q96RJ0, R83H); assay: GloSensor cAMP accumulation assay, R83H mutant; format: cell-based; settings: for ΔEmax values (each mutant value - WT average) / ΔpEC50 values (each mutant value - WT average): R83H mutant minus WT average; for Emax values, Mean: β-PEA = 100;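 on all read-outs here: cells transiently co-expressing hTA1 and a cAMP GloSensor, luminescence read 30 min after agonist addition at room temperature, concentration–response fitted by non-linear regression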
T3 construct: expressed in transfected cells; host or cells: HEK293T
T3 sequence (Q96RJ0 1-339 R83H): T1 sequence (Q96RJ0 1-339 T194A) with R83H, A194T

[4] = T149A (so in the source), single experiments (3 replicates each)
[5] = hTA1 C5S, mean of 3 replicates, one line per independent experiment
[6] = hTA1 C5S, β-PEA = 100, mean of 3 replicates, one line per independent experiment
[7] = R83H mutant, each line an independent experiment, 3 replicates

SMILES	pEC50 values, Mean [1, 4]	Emax values, Mean [1, 4]	EC50 ([1]; T194A) [nM]	Span ± SEM (Emax normalized to β-PEA) ([1]; T194A)	pEC50 ± SEM ([1]; T194A)	reduction in potency vs wild type ([1]; T194A)	Span ± SEM (Emax normalized to β-PEA) ([2]; C5S, n=2)	pEC50 ± SEM ([2]; C5S, n=2)	EC50 ([2]; C5S, n=2, read-out: EC50) [nM]	pEC50 values, Mean [2, 5]	Emax values, Mean [2, 6]	C5S - Normalized Luminescence Counts (N=2) ([2]; M = -5)	C5S - Normalized Luminescence Counts (N=2) ([2]; M = -5.522)	C5S - Normalized Luminescence Counts (N=2) ([2]; M = -6)	C5S - Normalized Luminescence Counts (N=2) ([2]; M = -6.522)	C5S - Normalized Luminescence Counts (N=2) ([2]; M = -7)	C5S - Normalized Luminescence Counts (N=2) ([2]; M = -7.522)	C5S - Normalized Luminescence Counts (N=2) ([2]; M = -8)	ΔEmax values (each mutant value - WT average) [3]	Emax values, Mean [3, 7]	other results
Cc1c(F)cccc1[C@H]1COC(N)=N1 [Ro5263397]	7.248 and 7.301 and 7.402	143.384 and 86.8999 and 99.8921	56.4	110.06	7.32 ± 0.14	over 30 fold	85.5 ± 2.16	8.41 ± 0.07	3.89	8.404 and 8.415	87.6591 and 83.3363	85.0708 and 100.74 and 87.5995 and 113.126 and 96.6929 and 89.5813	97.1276 and 85.703 and 92.1378 and 95.6573 and 94.8978 and 70.801	93.0635 and 85.8836 and 79.9907 and 67.4868 and 91.9288 and 67.763	88.5027 and 85.5675 and 89.6542 and 93.5169 and 82.6077 and 78.2579	87.2609 and 83.7612 and 87.2157 and 111.607 and 73.6318 and 82.4696	71.4335 and 67.6629 and 81.3002 and 85.1624 and 76.2555 and 81.6411	61.928 and 52.9645 and 61.8152 and 50.2945 and 70.0415 and 59.7537	-44.7513	41.952 and 25.7686	ΔpEC50 values (each mutant value - WT average), Mean ([1]; T149A (so in the source) minus WT average): -1.583 and -1.53 and -1.429; ΔpEC50 values (each mutant value - WT average), Mean ([2]; hTA1 C5S minus WT average): -0.4275 and -0.4158; C5S - Normalized Luminescence Counts (N=2) ([2]; M = -8.522): 48.2456 and 39.1466 and 43.2332 and 39.9378 and 36.8998 and 46.1518; C5S - Normalized Luminescence Counts (N=2) ([2]; M = -9): 23.0031 and 19.2551 and 16.9296 and 21.986 and 33.2404 and 18.948; C5S - Normalized Luminescence Counts (N=2) ([2]; M = -9.522): 10.2012 and 7.989 and 6.476 and 12.3887 and 12.803 and 8.1079; ΔpEC50 values (each mutant value - WT average) [3]: -0.3934 and -0.2739; pEC50 values, Mean [3, 7]: 8.438 and 8.557; Span ± SEM (Emax normalized to β-PEA) ([3]; R83H, n=2): 33.86 ± 8.09; pEC50 ± SEM ([3]; R83H, n=2): 8.5 ± 0.15; EC50 ([3]; R83H, n=2, read-out: EC50): 3.18 nM
CCC(CC1COC(N)=N1)c1ccccc1 (stereo not shown) [Ro5256390]	–	128.602 and 110.169 and 108.613	–	–	–	over 5 fold	–	–	–	–	93.1178	103.833 and 96.8115 and 93.515 and 109.052 and 73.4937 and 115.059	100.921 and 96.3599 and 95.6826 and 93.2407 and 55.8872 and 98.4881	105.12 and 94.0343 and 79.8326 and 75.5651 and 84.541 and 101.802	95.389 and 104.217 and 100.289 and 100.214 and 115.957 and 88.6146	82.6549 and 83.4903 and 89.3381 and 93.6549 and 93.9311 and 89.0289	62.4022 and 62.4925 and 74.2106 and 83.9196 and 70.5248 and 74.2532	36.7307 and 40.4787 and 36.4823 and 59.3395 and 54.6444 and 53.6087	-44.6015	58.7027 and 38.4174	EC50 ([1]; EC50, T194A): 34.8 nM; EC50 ([1]; pEC50 values, Mean, T149A (so in the source), single experiments (3 replicates each)): 34.8 nM and 27.7 nM and 14.2 nM; EC50 ([1]; pEC50 ± SEM, T194A): 24 nM; Emax ([1]; read-out: Span ± SEM (Emax normalized to β-PEA)): 116 ± 9.22%; EC50 ([2]; EC50, C5S, n=2): 9.93 nM; C5S - Normalized Luminescence Counts (N=2) ([2]; M = -9): 8.372 and 7.4241 and 6.656 and 9.834 and 7.901 and 11.353; EC50 ([2]; pEC50 values, Mean, hTA1 C5S, mean of 3 replicates, one line per independent experiment): 15.2 nM and 6.48 nM; EC50 ([2]; pEC50 ± SEM, C5S, n=2): 10 nM; Emax ([2]; read-out: Emax values, Mean, hTA1 C5S, β-PEA = 100, mean of 3 replicates, one line per independent experiment): 97.6%; Emax ([2]; read-out: Span ± SEM (Emax normalized to β-PEA), C5S, n=2): 95.4 ± 2.26%; EC50 ([3]; EC50, R83H, n=2): 5.19 nM; ΔpEC50 values (each mutant value - WT average) [3]: -0.01027 and 0.0342; EC50 ([3]; pEC50 values (Mean), R83H mutant, each line an independent experiment, 3 replicates): 5.46 nM and 4.93 nM; Emax ([3]; read-out: Span ± SEM (Emax normalized to β-PEA), R83H, n=2): 48.6 ± 10.1%
NCCc1ccc(Oc2ccc(O)cc2)c(I)c1 [T1AM, 3-iodothyronamine]	6.398 and 6.629 and 6.1942	79.7491 and 146.858 and 73.3036	235	99.97	6.41 ± 0.14	–	81.19 ± 8.03	5.95 ± 0.04	1110	6.184 and 5.721	73.1551 and 89.2227	66.8501 and 72.156 and 68.5661 and 75.0127 and 63.7584 and 82.7458	58.0446 and 60.9798 and 52.4226 and 59.2704 and 49.2589 and 55.9562	–	–	–	–	–	-50.5458	19.9005 and -6.007	cAMP accumulation response, individual replicate values of the concentration-response curve ([1]; M = -7.522): 6.402 and 2.253 and 5.81 and 6.799 and 11.9487 and 8.441; cAMP accumulation response, individual replicate values of the concentration-response curve ([1]; M = -8): 0.08035 and -1.303 and -0.1172 and 2.714 and 2.536 and 3.069; cAMP accumulation response, individual replicate values of the concentration-response curve ([1]; M = -8.522): -1.5 and -0.9074 and -0.5123 and 0.09457 and 0.1834 and 0.5385; cAMP accumulation response, individual replicate values of the concentration-response curve ([1]; M = -9): -0.9074 and -1.303 (2×) and -1.015 and -1.326 and -0.3494; cAMP accumulation response, individual replicate values of the concentration-response curve ([1]; M = -9.522): -2.093 (3×) and -0.6158 and -1.149 and -0.527; cAMP accumulation response, individual replicate values of the concentration-response curve ([1]; M = -10): -1.698 and -1.303 and -1.105 and -0.749 (2×) and -0.4382; cAMP accumulation response, individual replicate values of the concentration-response curve ([1]; M = -10.522): -1.5 and -1.303 and -1.698 and -0.8822 and -1.326 and -0.971; cAMP accumulation response, individual replicate values of the concentration-response curve ([1]; M = -11): -1.303 and -0.9074 and -0.3148 and -0.4826 and -0.9266 and 0.5385; cAMP accumulation response, individual replicate values of the concentration-response curve ([1]; M = -11.522): -1.303 (2×) and -0.9074 and -0.4382 and -0.7046 and -0.3938; cAMP accumulation response, individual replicate values of the concentration-response curve ([1]; M = -12): -0.5123 and -1.105 and -1.5 and -0.4826 and -0.5714 and -0.6158; cAMP accumulation response, individual replicate values of the concentration-response curve ([1]; M = -12.522): -0.3148 (2×) and -0.5123 and -0.5714 (2×) and -0.305; Span ± SEM (Emax normalized to β-PEA) ([3]; R83H, n=2): 6.95 ± 12.95
